From PMC13280021, “Collateral hypersensitivity between ZY19489 and piperaquine neutralizes PfCRT-mediated drug efflux and Plasmodium falciparum resistance” (Nature Communications, 2025)
Read-outs that look alike come from different tables or passages of the source.

Legend:
[1] = system: T1, Plasmodium falciparum Dd2^Dd2crt; assay: microbe, parasite or virus in culture; set-up: species or system P. falciparum in human red blood cells; asexual blood stage growth inhibition, flow cytometry with SYBR Green I and MitoTracker Deep Red; details: DD2, Erythrocyte, 72 h
T1 construct: Dd2
Protocol: Susceptibility to all drugs tested in this study was measured by incubating asynchronous, ABS parasites plated at 0.2% to 0.3% parasitemia (or 0.8% for the poorly growing ZY19489-resistant lines harboring the pfcrt N246H allele) and 1% hematocrit at 37 °C in 96-well plates. The assays were set up across a range of drug concentrations with two-fold dilutions. For the experiments testing for susceptibility of recrudescent parasite lines that emerged in humanized NSG mice to ZY19489, M5717, MMV693183, or ferroquine, parasites were cultured at 2% hematocrit in human O^+ or A^+ RBCs in RPMI-1640 media, supplemented with 25 mM HEPES (Fisher), 50 mg/L hypoxanthine (Sigma Aldrich), 2 mM L-glutamine (Cambridge Isotope Laboratories, Inc.), 0.21% sodium bicarbonate (Sigma Aldrich), 0.5% (w/v) Albumax (Invitrogen), 8% filtered, heat-inactivated, pooled off-the-clot AB^+ human serum (Interstate Blood Bank or New York Blood Center), and 10 μg/mL gentamicin (Fisher). The parental P. falciparum Pf3D7^0087/N9 strain that has been adapted to proliferate in this humanized NSG mouse model was cultured in parallel as the drug-sensitive control strain. All compound susceptibility assays for the recrudescent lines and parental control strain were performed using 8% serum-containing medium. Parasite growth in each well was assessed after 72 h using flow cytometry of cultures stained with SYBR Green I and MitoTracker Deep Red (Supplementary Fig. S12). IC50 and IC90 values were derived from growth inhibition data using nonlinear regression analysis (GraphPad Prism 7) or linear interpolation (assays for recrudescent lines from humanized mice). Unless otherwise stated, assays were performed on four independent occasions with technical duplicates, and statistical comparisons were made using two-tailed Mann–Whitney U tests. Gated RBCs 97.0% Live parasites 3.80% A B Forward scatter (FSC-H) MitoTracker Deep Red Supplementary Fig. 12: Gating strategy for flow cytometry-based quantification of P. falciparum asexual blood stage parasite proliferation in drug susceptibility and growth rate assays. Intra-erythrocytic parasites were seeded at 0.3% - 0.8% parasitemia and 1% hematocrit for 72 hours in the presence of a range of drug concentrations that had been 2-fold serially diluted in duplicates along with drug-free controls. Cells were then labeled with 1× SYBR Green (Invitrogen) and 100 nM MitoTracker Deep Red FM (Invitrogen) as nuclear stain and vital dyes, respectively. Parasite survival was assessed by flow cytometry on an Intellicyt iQue3 (Essen Bioscience). Between 9,000 and 15,000 events were counted per sample. […] (A) Forward (FSC-H) and side scatter (SSC-H) gating of the total red blood cell (RBC) population, representing 97.0% of the total events counted. (B) Gating strategy used to quantify viable intracellular parasites, which are positively stained by both MitoTracker Deep Red and SYBR Green I and appear as events in the upper right gate (live parasites, 3.80% parasitemia). Uninfected erythrocytes appear in the lower left gate as MitoTracker Deep Red and SYBR Green I negative populations.

[2] = system: T2, Plasmodium falciparum TAD_022; assay: microbe, parasite or virus in culture; set-up: species or system P. falciparum 3D7^0087/N9 in human red blood cells; asexual blood stage growth inhibition in 8% human serum medium, flow cytometry; details: Erythrocyte, 72 h; for IC50: read-out: IC50 ± SEM (nM); for IC90: read-out: IC90 ± SEM (nM)
T2 construct: 3D7^0087/N9 (TAD_022)
Protocol: Susceptibility to all drugs tested in this study was measured by incubating asynchronous, ABS parasites plated at 0.2% to 0.3% parasitemia (or 0.8% for the poorly growing ZY19489-resistant lines harboring the pfcrt N246H allele) and 1% hematocrit at 37 °C in 96-well plates. The assays were set up across a range of drug concentrations with two-fold dilutions. For the experiments testing for susceptibility of recrudescent parasite lines that emerged in humanized NSG mice to ZY19489, M5717, MMV693183, or ferroquine, parasites were cultured at 2% hematocrit in human O^+ or A^+ RBCs in RPMI-1640 media, supplemented with 25 mM HEPES (Fisher), 50 mg/L hypoxanthine (Sigma Aldrich), 2 mM L-glutamine (Cambridge Isotope Laboratories, Inc.), 0.21% sodium bicarbonate (Sigma Aldrich), 0.5% (w/v) Albumax (Invitrogen), 8% filtered, heat-inactivated, pooled off-the-clot AB^+ human serum (Interstate Blood Bank or New York Blood Center), and 10 μg/mL gentamicin (Fisher). The parental P. falciparum Pf3D7^0087/N9 strain that has been adapted to proliferate in this humanized NSG mouse model was cultured in parallel as the drug-sensitive control strain. All compound susceptibility assays for the recrudescent lines and parental control strain were performed using 8% serum-containing medium. Parasite growth in each well was assessed after 72 h using flow cytometry of cultures stained with SYBR Green I and MitoTracker Deep Red (Supplementary Fig. S12). IC50 and IC90 values were derived from growth inhibition data using nonlinear regression analysis (GraphPad Prism 7) or linear interpolation (assays for recrudescent lines from humanized mice). Unless otherwise stated, assays were performed on four independent occasions with technical duplicates, and statistical comparisons were made using two-tailed Mann–Whitney U tests. To assess potential cross-resistance between M5717 and ZY19489, we tested three M5717-resistant lines (TAD_470, TAD_462, and TAD_464), which harbored distinct PfeEF2 mutations (I183M, P754S, and I182T, respectively), for susceptibility to ZY19489.

[3] = biological target: T3, P. falciparum chloroquine resistance transporter (PfCRT), 7G8 + F145I isoform (Plasmodium falciparum, UniProt W7FI62, F145I); assay: inhibition of [3H]PPQ uptake in PfCRT proteoliposomes; type: biochemical; details: read-out: % inhibition of [3H]PPQ transport at 1 μM
T3 construct: gene CRT; purified PfCRT 7G8 + F145I reconstituted in proteoliposomes

[4] = biological target: T3, P. falciparum chloroquine resistance transporter (PfCRT), 7G8 + F145I isoform; assay: […] [3H]PPQ uptake in PfCRT proteoliposomes; type: biochemical
[5] = biological target: T4, P. falciparum chloroquine resistance transporter (PfCRT), 7G8 isoform (Plasmodium falciparum, UniProt W7FI62); assay: […] [3H]CQ uptake in PfCRT proteoliposomes; type: biochemical
T4 construct: gene CRT; purified PfCRT 7G8 reconstituted in proteoliposomes
T4 sequence (W7FI62 whole entry, canonical isoform): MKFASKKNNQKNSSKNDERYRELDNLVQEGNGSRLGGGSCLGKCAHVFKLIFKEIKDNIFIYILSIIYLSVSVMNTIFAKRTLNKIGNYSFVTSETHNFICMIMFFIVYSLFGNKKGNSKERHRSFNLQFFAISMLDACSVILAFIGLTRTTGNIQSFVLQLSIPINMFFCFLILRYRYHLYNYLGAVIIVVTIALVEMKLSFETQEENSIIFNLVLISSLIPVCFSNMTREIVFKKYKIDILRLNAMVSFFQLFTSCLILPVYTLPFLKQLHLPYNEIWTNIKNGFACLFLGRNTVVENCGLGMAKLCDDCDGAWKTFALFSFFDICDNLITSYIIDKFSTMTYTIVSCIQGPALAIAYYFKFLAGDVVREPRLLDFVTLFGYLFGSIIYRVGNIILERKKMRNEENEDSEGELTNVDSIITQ

T3 sequence (W7FI62 whole entry F145I, canonical isoform): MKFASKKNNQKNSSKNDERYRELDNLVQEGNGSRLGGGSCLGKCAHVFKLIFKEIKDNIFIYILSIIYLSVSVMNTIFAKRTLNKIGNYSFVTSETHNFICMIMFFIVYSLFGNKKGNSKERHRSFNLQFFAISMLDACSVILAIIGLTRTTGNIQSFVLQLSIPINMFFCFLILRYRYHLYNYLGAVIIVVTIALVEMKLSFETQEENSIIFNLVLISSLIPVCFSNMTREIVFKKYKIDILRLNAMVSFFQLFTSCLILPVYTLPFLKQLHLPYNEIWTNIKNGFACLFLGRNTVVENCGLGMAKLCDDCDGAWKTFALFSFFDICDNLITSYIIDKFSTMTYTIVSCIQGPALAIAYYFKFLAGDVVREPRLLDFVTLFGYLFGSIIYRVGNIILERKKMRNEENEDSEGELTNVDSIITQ

Question: What does the source list for `COC(=O)[C@H](CCCN=C(NC(=O)OCOC(=O)Cc1ccccc1)NC(=O)OCOC(=O)Cc1ccccc1)NS(=O)(=O)c1ccc(C)cc1` [pro-TAME]?
Answer: IC50 ([1]; read-out: IC50): 58400 ± 7100 nM; IC90 ([1]; read-out: IC90): 91000 ± 11300 nM

Question: Which IC50 [2] does the source give for `Cc1nc(Nc2ncc(N3CCN(C)[C@H](C)C3)c(Nc3cc(C)n(C)n3)n2)cc(C2CC2)c1F` [ZY19489] here?
Answer: 7.2 ± 0.9 nM

Question: What about the IC90 [2] of the same compound?
Answer: 17.1 ± 1.1 nM

Question: And the inhibition at 1 µM [3]?
Answer: 79%

Question: For `Clc1ccc2c(N3CCN(CCCN4CCN(c5ccnc6cc(Cl)ccc56)CC4)CC3)ccnc2c1` [PPQ, piperaquine], which “100 nM [3H]PPQ uptake in PfCRT proteoliposomes” value [4] is on record?
Answer: interference was also observed against [^3H]PPQ transport by the PPQ-resistant isoform 7G8 + F145I

Question: And the IC50 ([1]; read-out: PPQ IC50)?
Answer: 12 ± 1 nM

Question: What about the IC90 ([1]; read-out: PPQ IC90) of the same compound?
Answer: 22.3 ± 4.6 nM

Question: With `COc1ccc(C2=N[C@@H](c3ccc(Cl)cc3)[C@@H](c3ccc(Cl)cc3)N2C(=O)N2CCNC(=O)C2)c(OC(C)C)c1` [Nutlin-3] as the compound, how does the IC50 ([1]; read-out: IC50 (nM)) read?
Answer: 5660 ± 511 nM

Question: And the IC90 ([1]; read-out: IC90 (nM))?
Answer: 9130 ± 714 nM

Question: With `O=C1C(O)=C([C@H]2CC[C@H](c3ccc(Cl)cc3)CC2)C(=O)c2ccccc21` [ATQ, atovaquone] as the compound, how does the IC50 ([1]; read-out: ATQ IC50) read?
Answer: 2.5 ± 0.4 nM

Question: And the IC90 ([1]; read-out: ATQ IC90)?
Answer: 5.3 ± 0.7 nM

Question: Which results are given for `CCCCN(CCCC)CC(O)c1cc(Cl)cc2c1-c1ccc(Cl)cc1/C2=C/c1ccc(Cl)cc1` (stereo not drawn) [LMF, lumefantrine]?
Answer: IC50 ([1]; read-out: LMF IC50): 6 ± 1.2 nM; IC90 ([1]; read-out: LMF IC90): 11.2 ± 1.8 nM

Question: What does the source list for `O=C1CCC(N2C(=O)c3ccccc3C2=O)C(=O)N1` (stereo not drawn) [Thalidomide]?
Answer: IC50 ([1]; read-out: IC50 (nM)): 85200 ± 5060 nM; IC90 ([1]; read-out: IC90 (nM)): 115700 ± 1110 nM

Question: With `C[C@H]1[C@@H](O)O[C@@H]2O[C@@]3(C)CC[C@H]4[C@H](C)CC[C@@H]1[C@@]24OO3` [DHA, dihydroartemisinin] as the compound, how does the IC50 ([1]; read-out: DHA IC50) read?
Answer: 2.6 ± 0.2 nM

Question: And the IC90 ([1]; read-out: DHA IC90)?
Answer: 4.7 ± 0.6 nM

Question: Which results are given for `CCN(CC)CCCC(C)Nc1ccnc2cc(Cl)ccc12` (stereo not drawn) [CQ, chloroquine]?
Answer: IC50 ([1]; read-out: CQ IC50): 104 ± 5.7 nM; IC90 ([1]; read-out: CQ IC90): 217 ± 11.3 nM; IC50 ([1]; read-out: IC50 (nM)): 94.6 ± 6.6 nM; IC90 ([1]; read-out: IC90 (nM)): 177 ± 24.1 nM; 100 nM [3H]CQ uptake in PfCRT proteoliposomes [5]: [^3H]CQ transport by the CQ-resistant 7G8 isoform

Question: How did the IC50 ([1]; read-out: DEAQ IC50) turn out when `CCNCc1cc(Nc2ccnc3cc(Cl)ccc23)ccc1O` [DEAQ, mono-desethylamodiaquine] was run?
Answer: 43.8 ± 5.9 nM

Question: What about the IC90 ([1]; read-out: DEAQ IC90) of the same compound?
Answer: 78.7 ± 8.8 nM

Question: With `O=C(NCCN1CCCC1)c1cc(-c2ccc(CN3CCOCC3)cc2)nc2ccc(F)cc12` [M5717] as the compound, how does the IC50 [2] read?
Answer: 0.4 ± 0.01 nM

Question: And the IC90 [2]?
Answer: 0.8 ± 0.1 nM
